Measurements taken from BindingDB's records for doi:10.1016/j.chembiol.2016.06.016 (Massachusetts Institute of Technology, 2016).

Legend:
Cytochrome b [1] = biological target: Cytochrome b (Homo sapiens, UniProt P00156); test: Cytochrome b Enzyme Assay; settings: pH 7.4; 25 °C
Description: (§1) Reaction plates were incubated at room temperature for 10 min before reading absorbance at 550 nm. Absolute IC50 values were calculated in GraphPad Prism 6.0.

Cytochrome b [2] = biological target: T1, Cytochrome b (Candida albicans, UniProt I2BJW5); test: Cytochrome b Enzyme Assay; settings: pH 7.4; 25 °C
T1 sequence (I2BJW5 whole entry): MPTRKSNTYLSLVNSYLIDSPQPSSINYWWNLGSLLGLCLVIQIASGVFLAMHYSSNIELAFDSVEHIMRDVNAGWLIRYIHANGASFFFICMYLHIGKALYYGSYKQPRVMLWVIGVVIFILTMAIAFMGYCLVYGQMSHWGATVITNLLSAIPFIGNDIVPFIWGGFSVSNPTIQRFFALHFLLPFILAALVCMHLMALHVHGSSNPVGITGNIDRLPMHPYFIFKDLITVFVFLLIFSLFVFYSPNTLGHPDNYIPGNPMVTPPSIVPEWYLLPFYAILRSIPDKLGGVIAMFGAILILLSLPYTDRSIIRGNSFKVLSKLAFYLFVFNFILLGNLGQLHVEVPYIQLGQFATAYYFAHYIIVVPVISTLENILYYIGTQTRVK
Description: as §1

Chain of Cytochrome b (Homo sapiens, UniProt P00156) (P00156 whole entry): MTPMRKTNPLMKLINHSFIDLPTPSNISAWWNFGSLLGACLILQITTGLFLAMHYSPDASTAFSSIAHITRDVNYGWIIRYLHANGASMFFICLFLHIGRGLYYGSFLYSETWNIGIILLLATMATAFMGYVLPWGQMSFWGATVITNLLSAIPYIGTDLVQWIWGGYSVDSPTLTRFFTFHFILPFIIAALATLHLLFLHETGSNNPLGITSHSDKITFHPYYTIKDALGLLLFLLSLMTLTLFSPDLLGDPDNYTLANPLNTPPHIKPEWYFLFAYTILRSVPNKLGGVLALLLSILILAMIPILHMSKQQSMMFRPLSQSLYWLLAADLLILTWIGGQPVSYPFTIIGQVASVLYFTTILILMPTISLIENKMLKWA

| Compound | IC50 (Cytochrome b [1]) [µM] | IC50 (Cytochrome b [2]) [µM] |
| --- | --- | --- |
| Cc1cccc2c(-c3cc(C(F)(F)F)ccc3F)nn(Cc3cnccn3)c12 [Inz-38] | > 64 | 0.602 |
| Fc1ccc(C(F)(F)F)cc1-c1nn(Cc2cnccn2)c2c(F)cccc12 [Inz-39] | 10.8 | 0.141 |
| c1ccc(COc2cccc(-c3n[nH]c4ccccc34)c2)cc1 [Inz-46] | > 64 | > 64 |
| COC(=O)Cn1ccc(-c2cccc(OCc3ccccc3)c2)n1 [Inz-48] | > 64 | > 64 |
| COC(=O)Cn1ncc2ccccc21 [Inz-49] | > 64 | > 64 |
| COC(=O)Cn1cc(-c2cccc(OCc3ccccc3)c2)c2ccccc21 [Inz-50] | > 64 | 13.1 |
| COC(=O)Cn1nc(-c2ccccc2C(F)(F)F)c2ccccc21 [Inz-51] | > 64 | 50.5 |
| COC(=O)Cn1nc(-c2cccc(OCC(C)C)c2)c2ccccc21 [Inz-54] | 9.23 | 0.344 |
| COC(=O)Cn1nc(-c2ccccc2OCc2ccccc2)c2ccccc21 [Inz-55] | > 64 | > 64 |
| COC(=O)Cn1c(C)c(-c2cccc(OCc3ccccc3)c2)c2ccccc21 [Inz-56] | > 64 | > 64 |
| COC(=O)Cn1nc(-c2cccc(OCCC(C)C)c2)c2ccccc21 [Inz-57] | 4.77 | 0.156 |
| COC(=O)Cn1nc(-c2c(C)cccc2C)c2ccccc21 [Inz-58] | > 64 | > 64 |
| COC(=O)Cn1nc(-c2c(F)cccc2F)c2ccccc21 [Inz-59] | > 64 | 2.36 |
| COC(=O)Cn1nc(-c2cccc(F)c2F)c2ccccc21 [Inz-60] | > 64 | 1.43 |
| COC(=O)Cn1nc(-c2cc(F)ccc2F)c2ccccc21 [Inz-61] | > 64 | 0.891 |
| COC(=O)Cn1nc(-c2cc(F)ccc2C)c2ccccc21 [Inz-62] | > 64 | 4.7 |
| COC(=O)Cn1nc(-c2cccc(OCCN(C)C)c2)c2ccccc21 [Inz-63] | > 64 | 35.2 |
| COC(=O)Cn1nc(-c2cccc(OCCC3CCCCC3)c2)c2ccccc21 [Inz-64] | 3.23 | 0.3 |
| CCN(CC)CCOc1cccc(-c2nn(CC(=O)OC)c3ccccc23)c1 [Inz-65] | > 64 | 13.8 |
| COC(=O)Cn1nc(-c2cccc(OCc3ccccc3)c2C)c2ccccc21 [Inz-66] | > 64 | 1.08 |
| COC(=O)Cn1nc(-c2cccc(OCCN(C(C)C)C(C)C)c2)c2ccccc21 [Inz-67] | 19.3 | 2.4 |
| COC(=O)Cn1nc(-c2cc(OCc3ccccc3)ccc2F)c2ccccc21 [Inz-68] | 1.66 | 0.0352 |
| COC(=O)Cn1nc(-c2cccc(OCc3ccccc3)c2F)c2ccccc21 [Inz-69] | > 64 | 3.27 |

| Compound | IC50 (Cytochrome b [1]) [µM] | IC50 (Cytochrome b [2]) [µM] |
| --- | --- | --- |
| COC(=O)Cn1nc(-c2ccc(F)cc2F)c2ccccc21 [Inz-71] | > 64 | 16.6 |
| COC(=O)Cn1nc(-c2cccs2)c2ccccc21 [Inz-73] | > 64 | 15.1 |
| COC(=O)Cn1nc(-c2cccc(OCCC(C)(C)C)c2)c2ccccc21 [Inz-74] | 4.72 | 0.657 |
| COC(=O)Cn1nc(-c2cccc(OCCC34CC5CC(CC(C5)C3)C4)c2)c2ccccc21 [Inz-75] | 1.08 | 1.14 |
| COC(=O)Cn1nc(-c2cccc(OCCCC3CCCCC3)c2)c2ccccc21 [Inz-76] | 5.46 | 1.8 |
| COC(=O)Cn1nc(-c2cc(OCCCC3CCCCC3)ccc2F)c2cccc(C)c21 [Inz-80] | 0.79 | 0.0388 |
| COC(=O)Cn1nc(-c2cc(OCCCC3CCCCC3)ccc2F)c2ccccc21 [Inz-81] | 2.43 | 0.129 |
| Cn1nnc(Cn2nc(-c3cc(OCCCC4CCCCC4)ccc3F)c3ccccc32)n1 [Inz-82] | 12.3 | 0.614 |
| Cn1nnc(Cn2nc(-c3cc(C(F)(F)F)ccc3F)c3ccccc32)n1 [Inz-83] | > 64 | 1.22 |
| Cc1cccc2c(-c3cc(OCCCC4CCCCC4)ccc3F)nn(Cc3nnn(C)n3)c12 [Inz-84] | 2.92 | 0.154 |
| COC(=O)CNc1ccccc1Oc1ccccc1 [Inz-86] | > 64 | > 64 |
| Fc1ccc(C(F)(F)F)cc1-c1nn(Cc2cnccn2)c2ccccc12 [Inz-94] | 35.1 | 0.449 |
| COc1cccc2c(-c3cc(C(F)(F)F)ccc3F)nn(Cc3cnccn3)c12 [Inz-95] | 15.2 | 0.437 |
| N#Cc1cccc2c(-c3cc(C(F)(F)F)ccc3F)nn(Cc3cnccn3)c12 [Inz-96] | > 64 | 22.7 |
| Fc1ccc(C(F)(F)F)cc1-c1nn(Cc2cnccn2)c2ncccc12 [Inz-97] | 54.4 | 0.935 |
| Fc1ccc(C(F)(F)F)cc1-c1nn(Cc2cnccn2)c2ccncc12 [Inz-98] | > 64 | 20.4 |
| Fc1ccc(C(F)(F)F)cc1-c1nn(Cc2cnccn2)c2cccnc12 [Inz-99] | > 64 | 17.7 |
| Nc1ccc2c(-c3cc(C(F)(F)F)ccc3F)nn(Cc3cnccn3)c2c1 [Inz-100] | > 64 | 5.48 |
| CC(=O)Nc1ccc2c(-c3cc(C(F)(F)F)ccc3F)nn(Cc3cnccn3)c2c1 [Inz-101] | > 64 | > 64 |
| CS(=O)(=O)N(c1ccc2c(-c3cc(C(F)(F)F)ccc3F)nn(Cc3cnccn3)c2c1)S(C)(=O)=O [Inz-102] | > 64 | > 64 |
| CNc1ccc2c(-c3cc(C(F)(F)F)ccc3F)nn(Cc3cnccn3)c2c1 [Inz-103] | > 64 | 2.13 |
| COC(=O)Cc1nn(-c2ccccc2)c2ccccc12 [Inz-104] | > 64 | 17.6 |
| CCCCCCC1C(=O)O[C@H](C)[C@H](NC(=O)c2cccc(NC=O)c2O)C(=O)O[C@@H](C)[C@@H]1OC(=O)CC(C)C (stereo partly drawn) [[(2R,3S,6S,7R)-3-[(3-formamido-2-hydroxybenzoyl)amino]-8-hexyl-2,6-dimethyl-4,9-dioxo-1,5-dioxonan-7-yl] 3-methylbutanoate] | 0.007 | 0.005 |

More lines, now with the values ahead:

| IC50 (Cytochrome b [1]) [µM] | IC50 (Cytochrome b [2]) [µM] | Compound |
| --- | --- | --- |
| > 64 | > 64 | c1ccc(-c2nn(Cc3nn[nH]n3)c3ccccc23)cc1 [Inz-33] |
| > 64 | 22.6 | Cn1nnc(Cn2nc(-c3ccccc3)c3ccccc32)n1 [Inz-34] |
| > 64 | > 64 | Cn1cc(Cn2nc(-c3ccccc3)c3ccccc32)nn1 [Inz-35] |
| > 64 | > 64 | c1ccc(-c2nn(Cc3ncccn3)c3ccccc23)cc1 [Inz-36] |
| > 64 | 5.42 | c1ccc(-c2nn(Cc3cnccn3)c3ccccc23)cc1 [Inz-37] |
| 28.1 | 0.981 | CCOc1cccc(-c2nn(CC(=O)OC)c3ccccc23)c1 [Inz-40] |
| > 64 | 44.1 | COC(=O)Cn1nc(-c2cccc(O)c2)c2ccccc21 [Inz-41] |
| > 64 | 7.24 | COC(=O)Cn1nc(-c2cccc(OCc3ccccc3)c2)c2ccccc21 [Inz-42] |
| > 64 | 22.8 | CCC(=O)Cn1nc(-c2cccc(OCc3ccccc3)c2)c2ccccc21 [Inz-43] |
| > 64 | > 64 | Cn1nc(-c2cccc(OCc3ccccc3)c2)c2ccccc21 [Inz-44] |
| 1.17 | 0.0663 | COC(=O)Cn1nc(-c2cccc(CCc3ccccc3)c2)c2ccccc21 [Inz-45] |
| > 64 | > 64 | O=C(O)Cn1nc(-c2cccc(OCc3ccccc3)c2)c2ccccc21 [Inz-47] |
| > 64 | 3.57 | COC(=O)Cn1nc(-c2ccccc2O)c2ccccc21 [Inz-52] |
| > 64 | 43.4 | COC(=O)Cn1nc(-c2ccc(CCc3ccccc3)cc2)c2ccccc21 [Inz-53] |
| > 64 | 5.91 | COC(=O)Cn1nc(-c2cccc(F)c2)c2ccccc21 [Inz-70] |
| > 64 | 17.9 | c1ccc(-c2nn(Cc3nnco3)c3ccccc23)cc1 [Inz-72] |
| > 64 | > 64 | Cc1nc(Cn2nc(-c3ccccc3)c3ccccc32)no1 [Inz-77] |
| > 64 | 14.8 | c1ccc(-c2nn(Cc3ncon3)c3ccccc23)cc1 [Inz-78] |
| > 64 | > 64 | c1ccc(-c2nn(Cc3c[nH]nn3)c3ccccc23)cc1 [Inz-79] |
| > 64 | > 64 | c1ccc(-c2nn(Cc3ccccn3)c3ccccc23)cc1 [Inz-85] |
| > 64 | > 64 | CN(O)C(=O)Cn1nc(-c2ccccc2)c2ccccc21 [Inz-87] |
| > 64 | > 64 | O=C(Cn1nc(-c2ccccc2)c2ccccc21)NO [Inz-88] |
| > 64 | > 64 | FC(F)Cn1nc(-c2ccccc2)c2ccccc21 [Inz-89] |
| > 64 | > 64 | Brc1cccnc1Cn1nc(-c2ccccc2)c2ccccc21 [Inz-90] |
| > 64 | > 64 | N#Cc1ncccc1Cn1nc(-c2ccccc2)c2ccccc21 [Inz-91] |
| > 64 | > 64 | COC(=O)Cn1nc(-c2ccncc2)c2ccccc21 [Inz-92] |
| > 64 | > 64 | c1ccc(-c2nn(Cc3cncnc3)c3ccccc23)cc1 [Inz-93] |
